PMC3898920 (PLoS ONE, 2014)

Tests used:
[1] = design: method as in earlier work; conditions: study from the University of Cape Town; trial protocol background; cited from earlier work
[2] = South Africa, cited from earlier work
[3] = Adverse events during the trial
[4] = Steady-state plasma pharmacokinetics of rifabutin and 25-O-desacetylrifabutin, alone and with lopinavir/ritonavir; conditions: for AUC: AUCτ; for C0: pre-dose
[5] = co-administered RMP; trial protocol background; cited from earlier work
[6] = Plasma lopinavir and ritonavir pharmacokinetics during rifabutin co-administration; conditions: for Effect of the different doses of rifabutin on plasma concentrations: rifabutin 150 mg OD vs 150 mg TPW
[7] = rifabutin 150 mg OD plus LPV/r vs rifabutin 300 mg OD alone
[8] = rifabutin 150 mg OD with lopinavir/ritonavir, median (range)
[9] = rifabutin 150 mg TPW plus LPV/r vs rifabutin 300 mg OD alone
[10] = rifabutin 150 mg TPW with lopinavir/ritonavir, median (range)
[11] = rifabutin 300 mg OD alone, median (range)
[12] = rifabutin 150 mg OD with lopinavir/ritonavir, end of dosing interval 24 h, median (range)
[13] = All patients, pooled whatever the RBT dosing, median (range)
[14] = LPV/r 400 mg/100 mg twice daily with RBT 150 mg OD, median (range)
[15] = LPV/r 400 mg/100 mg twice daily with RBT 150 mg TPW, median (range)

Which “Reduction of drug concentrations by HIV infection” value [1] does the source give for CO[C@H]1/C=C/O[C@@]2(C)Oc3c(C)c(O)c4c(O)c(c(/C=N/N5CCN(C)CC5)c(O)c4c3C2=O)NC(=O)/C(C)=C\C=C\[C@H](C)[C@H](O)[C@@H](C)[C@@H](O)[C@@H](C)[C@H](OC(C)=O)[C@@H]1C [RMP, rifampicin] here?
Its value is 39%.

What does the source list for CO[C@H]1/C=C/O[C@@]2(C)Oc3c(C)c(O)c4c(c3C2=O)C2=NC3(CCN(CC(C)C)CC3)NC2=C(NC(=O)/C(C)=C\C=C\[C@H](C)[C@H](O)[C@@H](C)[C@@H](O)[C@@H](C)[C@H](OC(C)=O)[C@@H]1C)C4=O [Rifabutin]?
AUCτ, median ([2]; 300 mg OD dose): 3053 ng·h/mL; Patients with areas under the curve less than 4.5 µg.h/mL ([2]; intermittent dose (three times a week) with LPV/r): over 85%; Uveitis ([3]; 33 enrolled patients): no uveitis; Cases of neutropenia ([3]; 33 enrolled patients, one grade 3, none grade 4): 4; Total adverse events (all grades together) ([3]; 33 enrolled patients, rifabutin-based TB treatment with d4T/3TC/LPV/r, whole follow-up): 124; Hepatic events with raised levels of liver enzymes ([3]; events occurring in 25 patients, 33 in the first 2 months, 23 after rifabutin was stopped): 56; Number of patients with AUCτ less than 4.5 µg.h/mL ([4]; 150 mg OD regimen with LPV/r): one; Number of patients with AUCτ less than 4.5 µg.h/mL ([4]; 150 mg TPW regimen with LPV/r): four; Number of patients with Cmax less than 0.3 µg/mL ([4]; 150 mg TPW regimen with LPV/r): one; Number of patients with AUCτ less than 4.5 µg.h/mL ([4]; 300 mg OD regimen alone): six; Tmax ([4]; human, plasma, oral, 150 mg): 3 h; AUC ([4]; human, plasma, oral, 150 mg, rifabutin 150 mg OD with lopinavir/ritonavir, τ 24 h, median (range)): 7290 ng·h/mL; AUC ([4]; human, plasma, oral, 150 mg, rifabutin 150 mg TPW with lopinavir/ritonavir, τ 48 h, median (range)): 7340 ng·h/mL; Cmax ([4]; human, plasma, oral, 150 mg, rifabutin 150 mg OD with lopinavir/ritonavir, median (range)): 671 ng/mL; Cmax ([4]; human, plasma, oral, 150 mg, rifabutin 150 mg TPW with lopinavir/ritonavir, median (range)): 544 ng/mL; AUC ([4]; human, plasma, oral, 300 mg, rifabutin 300 mg OD alone, τ 24 h, median (range)): 5640 ng·h/mL; Cmax ([4]; human, plasma, oral, 300 mg, rifabutin 300 mg OD alone, steady state, median (range)): 792 ng/mL; concentration at 24 h ([4]; human, plasma, oral, Cmin n = 15, rifabutin 150 mg OD with lopinavir/ritonavir, end of dosing interval 24 h, median (range)): 161 ng/mL; concentration at 48 h ([4]; human, plasma, oral, Cmin n = 15, rifabutin 150 mg TPW with lopinavir/ritonavir, end of dosing interval 48 h, median (range)): 54 ng/mL; concentration at 24 h ([4]; human, plasma, oral, Cmin n = 15, rifabutin 300 mg OD alone, end of dosing interval 24 h, median (range)): 61 ng/mL; concentration at 24 h ([4]; human, plasma, oral, Cmin n = 25, rifabutin 150 mg OD with lopinavir/ritonavir, end of dosing interval 24 h, median (range)): 169 ng/mL; concentration at 24 h ([4]; human, plasma, oral, Cmin n = 25, rifabutin 300 mg OD alone, end of dosing interval 24 h, median (range)): 79 ng/mL; AUCτ geometric mean ratio (90% CI) ([4]; rifabutin 150 mg OD plus LPV/r (AUC24h) vs rifabutin 300 mg OD alone): 1.32 (1.16;1.51); C0 geometric mean ratio (90% CI) [4, 7]: 2.61 (2.13;3.19); Cave geometric mean ratio (90% CI) [4, 7]: 1.32 (1.16;1.51); Cmax geometric mean ratio (90% CI) [4, 7]: 0.88 (0.75;1.04); Cave (AUCτ/τ) [4, 8]: 304 (147–521) ng/mL; C0 [4, 8]: 180 (121 – 310) ng/mL; AUCτ geometric mean ratio (90% CI) ([4]; rifabutin 150 mg TPW plus LPV/r (AUC48h) vs rifabutin 300 mg OD alone): 1.12 (0.92;1.37); C0 geometric mean ratio (90% CI) [4, 9]: 0.94 (0.73;1.21); Cave geometric mean ratio (90% CI) [4, 9]: 0.56 (0.46;0.69); Cmax geometric mean ratio (90% CI) [4, 9]: 0.65 (0.51;0.83); Decrease in average steady state concentration (Cave) ([4]; rifabutin 150 mg TPW with LPV/r compared with rifabutin 300 mg alone): 44%; Decrease in Cmax ([4]; rifabutin 150 mg TPW with LPV/r vs rifabutin monotherapy): 35%; Cave (AUCτ/τ) [4, 10]: 153 (30–227) ng/mL; Tmax [4, 10]: 3 (0 – 5) h; C0 [4, 10]: 70 (25 – 413) ng/mL; Mean increase in average steady state concentration (Cave) ([4]; rifabutin 150 mg daily with LPV/r compared with rifabutin 300 mg alone): 32%; Cave (AUCτ/τ) [4, 11]: 235 (113–370) ng/mL; C0 [4, 11]: 74 (13 – 161) ng/mL; Bioequivalence of Cave with rifabutin alone (90% CI within 0.80 to 1.25) ([4]; the two tested dosing regimens (150 mg OD, 150 mg TPW) combined with lopinavir/ritonavir): failed to show bioequivalence

With “25-O-desacetylrifabutin [25-O desacetyl rifabutin]” as the compound, how does the “Cmin n = 15” value [4, 12] read?
Its value is 114 (73 – 253) ng/mL.

And the “Cmin n = 25” value [4, 12]?
Its value is 115 (59 – 253) ng/mL.

And the Tmax [4, 8]?
Its Tmax is 4 (2 – 8) h.

What about the “C0 geometric mean ratio (90% CI)” value [4, 9] of the same compound?
The value was 4.35 (3.14;6.02).

What about the “Cmin n = 15” value ([4]; rifabutin 150 mg TPW with lopinavir/ritonavir, end of dosing interval 48 h, median (range)) of the same compound?
The value was 67 (11 – 214) ng/mL.

And the Tmax [4, 10]?
The Tmax was 4 (2 – 6) h.

What about the “Cmin n = 15” value ([4]; rifabutin 300 mg OD alone, end of dosing interval 24 h, median (range)) of the same compound?
The value was 6 (0 – 33) ng/mL.

What about the Tmax [4, 11] of the same compound?
Its Tmax is 3 (0 – 5) h.

For O=C1Nc2ccc(Cl)cc2[C@@](C#CC2CC2)(C(F)(F)F)O1 [EFV, efavirenz], which “Reduction of bioavailability by RMP” value [5] is on record?
The value was “approximately 25%”.

For Cc1ccnc2c1NC(=O)c1cccnc1N2C1CC1 [NVP, nevirapine], which “Reduction of bioavailability by RMP” value [5] is on record?
The value was 35%.

With Cc1cccc(C)c1OCC(=O)N[C@@H](Cc1ccccc1)[C@@H](O)C[C@H](Cc1ccccc1)NC(=O)[C@H](C(C)C)N1CCCNC1=O [Lopinavir] as the compound, how does the “C0 (trough concentration)” value [6, 13] read?
Its value is 8739 (<50– 31171) ng/mL.

What about the “C0 (trough concentration)” value [6, 14] of the same compound?
The value was 9155 (399–27567) ng/mL.

And the “Effect of the different doses of rifabutin on plasma concentrations” value [6]?
The value was “no significant effect”.

Which “C0 (trough concentration)” value [6, 13] does the source give for CC(C)c1nc(CN(C)C(=O)N[C@H](C(=O)N[C@@H](Cc2ccccc2)C[C@H](O)[C@H](Cc2ccccc2)NC(=O)OCc2cncs2)C(C)C)cs1 [Ritonavir] here?
Its value is 303 (25–680) ng/mL.

And the “C0 (trough concentration)” value [6, 14]?
The value was 314 (25– 569) ng/mL.

And the “C0 (trough concentration)” value [6, 15]?
The value was 257 (25–680) ng/mL.

What about the Cmax [6, 15] of the same compound?
The Cmax was 816 (405–2484) ng/ml.

And the “Effect of the different doses of rifabutin on plasma concentrations” value [6]?
Its value is “no significant effect”.
